Assay results reported in US10526389B2, “Peptides and combinations of peptides for use in immunotherapy against lung cancer, including NSCLC and other cancers” (Immatics Biotechnologies GmbH, priority 2015, dated 2020).

What was measured:
[1] = system: MHC class I; assay: MHC binding assay (UV-ligand exchange, ELISA); set-up: species or system human; details: yield of UV-ligand exchange reaction
Source text: Candidate peptides for T cell based therapies according to the present invention were further tested for their MHC binding capacity (affinity). The individual peptide-MHC complexes were produced by UV-ligand exchange, where a UV-sensitive peptide is cleaved upon UV-irradiation, and exchanged with the peptide of interest as analyzed. Only peptide candidates that can effectively bind and stabilize the peptide-receptive MHC molecules prevent dissociation of the MHC complexes. To determine the yield of the exchange reaction, an ELISA was performed based on the detection of the light chain (62m) of stabilized MHC complexes. The assay was performed as generally described in Rodenko et al (Rodenko et al., 2006).
96 well MAXISorp plates (NUNC) were coated over night with 2 ug/ml streptavidin in PBS at room temperature, washed 4× and blocked for 1 h at 37° C. in 2% BSA containing blocking buffer. Refolded HLA-A*02:01/MLA-001 monomers served as standards, covering the range of 15-500 ng/ml. Peptide-MHC monomers of the UV-exchange reaction were diluted 100 fold in blocking buffer. Samples were incubated for 1h at 37° C., washed four times, incubated with 2 ug/ml HRP conjugated anti-62m for 1h at 37° C., washed again and detected with TMB solution that is stopped with […]. Absorption was measured at 450 nm. Candidate peptides that show a high exchange yield (preferably higher than 50%, most preferred higher than 75%) are generally preferred for a generation and production of antibodies or fragments thereof, and/or T cell receptors or fragments thereof, as they show sufficient avidity to the MHC molecules and prevent dissociation of the MHC complexes.

[2] = system: CD4+ T cells; assay: HLA class II T-cell proliferation assay (ProImmune, CFSE); format: cell-based, human; details: for Number of positive donors: 21 donor samples, positive = over 0.02% stimulation above background; for Number of positive donors / Strength of response: mean in % above the background: 5 μM peptide; for Strength of response: mean in % above the background: CD4+ T-cell proliferation (CFSE)
Source text: The experiments as follows summarize the results of T-cell Proliferation Assays of selected MHC class II TUMAPs. Nine of 10 tested peptide antigens tested positive for immunogenicity. […] Individual peptide antigens stimulated the CD4+ T-cell proliferation in up to 6 donors. […] Thus, it can be concluded that the newly tested peptides also have a high potential to induce T-cell responses in vaccine trials.
In order to characterize selected peptides for their potential especially as vaccine candidates, their in vitro immunogenicity was determined by analysis of T-cell proliferation using a commercial T-cell Proliferation Assay from the company ProImmune.
Healthy donor CD8-depleted blood cells samples were tested with the selected peptides. The peptides that induce the proliferation of CD4+ T cells can potentially result in the development of a helper T-cell immune response, and therefore are considered to be immunogenic. The proliferation of CD4+ T cells was determined using carboxyfluorescein succinimidyl ester (CFSE) labelling. In proliferating cells, CFSE is distributed evenly to dividing cells. Thus, the proliferation can be measured as a decrease in CFSE fluorescence in the cells as analyzed.
Peripheral blood mononuclear cell (PBMC) samples from healthy human donors were selected from the ProImmune cell bank based on HLA-DRB1 allele expression. CD8^+ T-cells were depleted from donor blood samples prior to use to avoid a false-positive response. The remaining CD4^+ T cells were labelled with CFSE and subsequently incubated with 5 μM of each selected peptide. Each peptide was tested in six replicated wells. The background was measured on each plate in six unstimulated control wells.
After an incubation period of 7 days the cells were co-stained with anti-CD4 antibody and analyzed by flow cytometry. The degree of proliferation was determined by measuring a reduction in CFSE intensity.
The evaluation of flow cytometric data was performed using FlowJo Software (Tree Star, Inc.). The results of flow cytometric analysis were expressed as the ratio of the CD4^+ dim population to the total CD4^+ population. The degree of proliferation was expressed as percentage of stimulation above background, i.e. proportion of antigen stimulated CD4^+ CFSE dim cells minus the proportion of CD4^+ CFSE dim cells from unstimulated control wells. For each sample, a mean and the corresponding standard error of the mean (SEM) of the six replicates were calculated.
Donors were chosen by HLA-DRB1 allele expression. The other two HLA class II loci (DQ and DP) have not been included into the analysis. The interesting DRB1 alleles were selected according to the frequencies of predicted peptide binding based on […] algorithm (Rammensee et al., 1999). For HLA-DR, binding was defined by a […] binding prediction score equal or greater than 18. This threshold score for binding was defined based on the analysis of binding scores of known published promiscuous HLA-DR ligands (Table 24).
All DRB1 alleles with binding frequency over 20% over all selected peptides were requested to be included into the donor panel) by ProImmune. 4 other rare DRB1 alleles (DRB1*10:01, DRB1*16:01, DRB1*08:01, and DRB1*13:03) were requested additionally.
The antigen-stimulated proliferation of CD4^+ T cells was considered as an indicator of in vitro immunogenicity and was investigated in a commercially available T-cell Proliferation Assay from ProImmune. The degree of antigen-stimulated CD4^+ T-cell proliferation was expressed as a percentage of stimulation above background. A response over 0.02% stimulation above background with SEM=2 (i.e. values two standard errors greater than background) was considered to be positive.

[3] = system: CD4+ T cells; details: 19 evaluable patients, prostate cancer-specific peptide vaccine (Feyerabend 2009; Widenmeyer 2008); cited from earlier work
[4] = system: CD4 T cells; assay: In vivo immunogenicity in vaccinated patients, intracellular cytokine staining (ICS) of CD4 T cells; set-up: species or system human; details: IMA950 peptides, 16 patients, study IMA950-101
Procedure: The T-cell proliferation analysis included 5 peptides with known in vivo immunogenicity as positive controls. The in vivo immunogenicity of these peptides was determined in blood samples of patients vaccinated with these peptides in clinical trials using intracellular cytokine staining (ICS) of CD4 T cells.
In principle, ICS assays analyze the quality of specific T cells in terms of effector functions. Therefore the peripheral mononuclear cells (PBMCs) were re-stimulated in vitro with the peptide of interest, a reference peptide and a negative control (here MOCK). Following the re-stimulated cells were stained for IFN-gamma, TNF-alpha, IL-2 and IL-10 production, as well as expression of the co-stimulatory molecule CD154. The counting of stained cells was performed on a flow cytometer (FIG. 5).

| Substance | Number of positive donors ([2]; 7 days) | Strength of response: mean in % above the background ([2]; 7 days) [%] | other results |
| --- | --- | --- | --- |
| 31 (SYLDKVRAL; listed as Homo sapiens) [compound 31] | – | – | Peptide exchange (MHC class I binding score) [1]: +++ (50%-75% = +++) |
| 45 (KFLESKGYEF; listed as Homo sapiens) [compound 45] | – | – | Peptide exchange (MHC class I binding score) [1]: +++ (50%-75% = +++) |
| 51 (NYLLESPHRF; listed as Homo sapiens) [compound 51] | – | – | Peptide exchange (MHC class I binding score) [1]: +++ (50%-75% = +++) |
| 55 (IYPVKYTQTF; listed as Homo sapiens) [compound 55] | – | – | Peptide exchange (MHC class I binding score) [1]: +++ (50%-75% = +++) |
| 60 (SYPAKLSFI; listed as Homo sapiens) [compound 60] | – | – | Peptide exchange (MHC class I binding score) [1]: +++ (50%-75% = +++) |
| 80 (AYLKEVEQL; listed as Homo sapiens) [compound 80] | – | – | Peptide exchange (MHC class I binding score) [1]: +++ (50%-75% = +++) |
| BIR-002: IMA950 class II peptide, positive control with known in vivo immunogenicity (TLGEFLKLDRERAKN; listed as Homo sapiens) [reference compound] | 3 | 0.24 | strength of stimulation response on average, above the background ([2]; CD4+ CFSE dim cells minus unstimulated control): 0.24%; patients mounting a strong CD4+ T-cell response [3]: 84%; immune response by vaccination (ICS) [4]: 100% |
| CEA-006: IMA910 class II peptide, positive control with known in vivo immunogenicity (SPQYSWRINGIPQQHT; listed as Homo sapiens) [reference compound] | 1 | 0.20 | – |
| COL1A2-001 (NKPSRLPFLDIAPLDIGGAD; listed as Homo sapiens) | 2 | 0.48 | – |
| COL5A2-001 (VARLPIIDLAPVDVGGTD; listed as Homo sapiens) | 2 | 0.21 | – |
| COL11A1-001 (EGDIQQFLITGDPKAAYDY; listed as Homo sapiens) | 5 | 0.19 | – |
| FN1-002: selected HLA class II peptide antigen of the T-cell proliferation assay; probably the FN1 HLA-DR peptide SEQ ID No. 93 (SRPQAPITGYRIVYSPSV; listed as Homo sapiens) | – | – | tested positive for immunogenicity (antigen-stimulated CD4+ T-cell proliferation) ([2]; positive: >0.02% stimulation above background, 5 uM peptide, 7 days): exception |
| IGF2BP3-002 (KLYIGNLSENAAPS; listed as Homo sapiens) | 3 | 0.40 | – |
| ITGB6-001 (NPVSQVEILKNKPLSVG; listed as Homo sapiens) | 6 | 0.23 | – |
| LAMC2-003 (DAVQMVITEAQKVDTR; listed as Homo sapiens) | 3 | 0.27 | – |
| LAMP3-002 (IQLIVQDKESVFSPR; listed as Homo sapiens) | 5 | 0.25 | – |
| MET-005: IMA950 class II peptide, positive control with known in vivo immunogenicity (TFSYVDPVITSISPKYG; listed as Homo sapiens) [reference compound] | 4 | 0.31 | immune response by vaccination (ICS) [4]: 100% |
| MMP12-007 (LSADDIRGIQSLYGDPK; listed as Homo sapiens) | 2 | 0.28 | – |
| MMP-001: IMA910 class II peptide, positive control with known in vivo immunogenicity (SQDDIKGIQKLYGKRS; listed as Homo sapiens) [reference compound] | 2 | 0.09 | – |
| POSTN-002 (TNGVIHVVDKLLYPADT; listed as Homo sapiens) | 2 | 0.39 | – |
| TGFBI-004: IMA910 class II peptide, positive control with known in vivo immunogenicity (TPPIDAHTRNLLRNH; listed as Homo sapiens) [reference compound] | 2 | 0.19 | – |
